Measured values published in ChEMBL document CHEMBL5126670, “Structure-Activity Relationships for the N-Me- Versus N-H-Amide Modification to Macrocyclic ent-Verticilide Antiarrhythmics” (ACS Med Chem Lett, 2022).
The source made the active and inactive calls. No cut-off for these calls is given here.

molecular target: Ryanodine receptor 2 (Mus musculus) (UniProt E9Q401); test: Inhibition of RyR2 in Casq2 gene knockout mouse cardiomyocytes assessed as reduction in calcium sparks frequency at 25 uM incubated for 15 mins by calcium sparks assay; format: cell-based; details: Cardiomyocyte
Sequence (E9Q401 whole entry): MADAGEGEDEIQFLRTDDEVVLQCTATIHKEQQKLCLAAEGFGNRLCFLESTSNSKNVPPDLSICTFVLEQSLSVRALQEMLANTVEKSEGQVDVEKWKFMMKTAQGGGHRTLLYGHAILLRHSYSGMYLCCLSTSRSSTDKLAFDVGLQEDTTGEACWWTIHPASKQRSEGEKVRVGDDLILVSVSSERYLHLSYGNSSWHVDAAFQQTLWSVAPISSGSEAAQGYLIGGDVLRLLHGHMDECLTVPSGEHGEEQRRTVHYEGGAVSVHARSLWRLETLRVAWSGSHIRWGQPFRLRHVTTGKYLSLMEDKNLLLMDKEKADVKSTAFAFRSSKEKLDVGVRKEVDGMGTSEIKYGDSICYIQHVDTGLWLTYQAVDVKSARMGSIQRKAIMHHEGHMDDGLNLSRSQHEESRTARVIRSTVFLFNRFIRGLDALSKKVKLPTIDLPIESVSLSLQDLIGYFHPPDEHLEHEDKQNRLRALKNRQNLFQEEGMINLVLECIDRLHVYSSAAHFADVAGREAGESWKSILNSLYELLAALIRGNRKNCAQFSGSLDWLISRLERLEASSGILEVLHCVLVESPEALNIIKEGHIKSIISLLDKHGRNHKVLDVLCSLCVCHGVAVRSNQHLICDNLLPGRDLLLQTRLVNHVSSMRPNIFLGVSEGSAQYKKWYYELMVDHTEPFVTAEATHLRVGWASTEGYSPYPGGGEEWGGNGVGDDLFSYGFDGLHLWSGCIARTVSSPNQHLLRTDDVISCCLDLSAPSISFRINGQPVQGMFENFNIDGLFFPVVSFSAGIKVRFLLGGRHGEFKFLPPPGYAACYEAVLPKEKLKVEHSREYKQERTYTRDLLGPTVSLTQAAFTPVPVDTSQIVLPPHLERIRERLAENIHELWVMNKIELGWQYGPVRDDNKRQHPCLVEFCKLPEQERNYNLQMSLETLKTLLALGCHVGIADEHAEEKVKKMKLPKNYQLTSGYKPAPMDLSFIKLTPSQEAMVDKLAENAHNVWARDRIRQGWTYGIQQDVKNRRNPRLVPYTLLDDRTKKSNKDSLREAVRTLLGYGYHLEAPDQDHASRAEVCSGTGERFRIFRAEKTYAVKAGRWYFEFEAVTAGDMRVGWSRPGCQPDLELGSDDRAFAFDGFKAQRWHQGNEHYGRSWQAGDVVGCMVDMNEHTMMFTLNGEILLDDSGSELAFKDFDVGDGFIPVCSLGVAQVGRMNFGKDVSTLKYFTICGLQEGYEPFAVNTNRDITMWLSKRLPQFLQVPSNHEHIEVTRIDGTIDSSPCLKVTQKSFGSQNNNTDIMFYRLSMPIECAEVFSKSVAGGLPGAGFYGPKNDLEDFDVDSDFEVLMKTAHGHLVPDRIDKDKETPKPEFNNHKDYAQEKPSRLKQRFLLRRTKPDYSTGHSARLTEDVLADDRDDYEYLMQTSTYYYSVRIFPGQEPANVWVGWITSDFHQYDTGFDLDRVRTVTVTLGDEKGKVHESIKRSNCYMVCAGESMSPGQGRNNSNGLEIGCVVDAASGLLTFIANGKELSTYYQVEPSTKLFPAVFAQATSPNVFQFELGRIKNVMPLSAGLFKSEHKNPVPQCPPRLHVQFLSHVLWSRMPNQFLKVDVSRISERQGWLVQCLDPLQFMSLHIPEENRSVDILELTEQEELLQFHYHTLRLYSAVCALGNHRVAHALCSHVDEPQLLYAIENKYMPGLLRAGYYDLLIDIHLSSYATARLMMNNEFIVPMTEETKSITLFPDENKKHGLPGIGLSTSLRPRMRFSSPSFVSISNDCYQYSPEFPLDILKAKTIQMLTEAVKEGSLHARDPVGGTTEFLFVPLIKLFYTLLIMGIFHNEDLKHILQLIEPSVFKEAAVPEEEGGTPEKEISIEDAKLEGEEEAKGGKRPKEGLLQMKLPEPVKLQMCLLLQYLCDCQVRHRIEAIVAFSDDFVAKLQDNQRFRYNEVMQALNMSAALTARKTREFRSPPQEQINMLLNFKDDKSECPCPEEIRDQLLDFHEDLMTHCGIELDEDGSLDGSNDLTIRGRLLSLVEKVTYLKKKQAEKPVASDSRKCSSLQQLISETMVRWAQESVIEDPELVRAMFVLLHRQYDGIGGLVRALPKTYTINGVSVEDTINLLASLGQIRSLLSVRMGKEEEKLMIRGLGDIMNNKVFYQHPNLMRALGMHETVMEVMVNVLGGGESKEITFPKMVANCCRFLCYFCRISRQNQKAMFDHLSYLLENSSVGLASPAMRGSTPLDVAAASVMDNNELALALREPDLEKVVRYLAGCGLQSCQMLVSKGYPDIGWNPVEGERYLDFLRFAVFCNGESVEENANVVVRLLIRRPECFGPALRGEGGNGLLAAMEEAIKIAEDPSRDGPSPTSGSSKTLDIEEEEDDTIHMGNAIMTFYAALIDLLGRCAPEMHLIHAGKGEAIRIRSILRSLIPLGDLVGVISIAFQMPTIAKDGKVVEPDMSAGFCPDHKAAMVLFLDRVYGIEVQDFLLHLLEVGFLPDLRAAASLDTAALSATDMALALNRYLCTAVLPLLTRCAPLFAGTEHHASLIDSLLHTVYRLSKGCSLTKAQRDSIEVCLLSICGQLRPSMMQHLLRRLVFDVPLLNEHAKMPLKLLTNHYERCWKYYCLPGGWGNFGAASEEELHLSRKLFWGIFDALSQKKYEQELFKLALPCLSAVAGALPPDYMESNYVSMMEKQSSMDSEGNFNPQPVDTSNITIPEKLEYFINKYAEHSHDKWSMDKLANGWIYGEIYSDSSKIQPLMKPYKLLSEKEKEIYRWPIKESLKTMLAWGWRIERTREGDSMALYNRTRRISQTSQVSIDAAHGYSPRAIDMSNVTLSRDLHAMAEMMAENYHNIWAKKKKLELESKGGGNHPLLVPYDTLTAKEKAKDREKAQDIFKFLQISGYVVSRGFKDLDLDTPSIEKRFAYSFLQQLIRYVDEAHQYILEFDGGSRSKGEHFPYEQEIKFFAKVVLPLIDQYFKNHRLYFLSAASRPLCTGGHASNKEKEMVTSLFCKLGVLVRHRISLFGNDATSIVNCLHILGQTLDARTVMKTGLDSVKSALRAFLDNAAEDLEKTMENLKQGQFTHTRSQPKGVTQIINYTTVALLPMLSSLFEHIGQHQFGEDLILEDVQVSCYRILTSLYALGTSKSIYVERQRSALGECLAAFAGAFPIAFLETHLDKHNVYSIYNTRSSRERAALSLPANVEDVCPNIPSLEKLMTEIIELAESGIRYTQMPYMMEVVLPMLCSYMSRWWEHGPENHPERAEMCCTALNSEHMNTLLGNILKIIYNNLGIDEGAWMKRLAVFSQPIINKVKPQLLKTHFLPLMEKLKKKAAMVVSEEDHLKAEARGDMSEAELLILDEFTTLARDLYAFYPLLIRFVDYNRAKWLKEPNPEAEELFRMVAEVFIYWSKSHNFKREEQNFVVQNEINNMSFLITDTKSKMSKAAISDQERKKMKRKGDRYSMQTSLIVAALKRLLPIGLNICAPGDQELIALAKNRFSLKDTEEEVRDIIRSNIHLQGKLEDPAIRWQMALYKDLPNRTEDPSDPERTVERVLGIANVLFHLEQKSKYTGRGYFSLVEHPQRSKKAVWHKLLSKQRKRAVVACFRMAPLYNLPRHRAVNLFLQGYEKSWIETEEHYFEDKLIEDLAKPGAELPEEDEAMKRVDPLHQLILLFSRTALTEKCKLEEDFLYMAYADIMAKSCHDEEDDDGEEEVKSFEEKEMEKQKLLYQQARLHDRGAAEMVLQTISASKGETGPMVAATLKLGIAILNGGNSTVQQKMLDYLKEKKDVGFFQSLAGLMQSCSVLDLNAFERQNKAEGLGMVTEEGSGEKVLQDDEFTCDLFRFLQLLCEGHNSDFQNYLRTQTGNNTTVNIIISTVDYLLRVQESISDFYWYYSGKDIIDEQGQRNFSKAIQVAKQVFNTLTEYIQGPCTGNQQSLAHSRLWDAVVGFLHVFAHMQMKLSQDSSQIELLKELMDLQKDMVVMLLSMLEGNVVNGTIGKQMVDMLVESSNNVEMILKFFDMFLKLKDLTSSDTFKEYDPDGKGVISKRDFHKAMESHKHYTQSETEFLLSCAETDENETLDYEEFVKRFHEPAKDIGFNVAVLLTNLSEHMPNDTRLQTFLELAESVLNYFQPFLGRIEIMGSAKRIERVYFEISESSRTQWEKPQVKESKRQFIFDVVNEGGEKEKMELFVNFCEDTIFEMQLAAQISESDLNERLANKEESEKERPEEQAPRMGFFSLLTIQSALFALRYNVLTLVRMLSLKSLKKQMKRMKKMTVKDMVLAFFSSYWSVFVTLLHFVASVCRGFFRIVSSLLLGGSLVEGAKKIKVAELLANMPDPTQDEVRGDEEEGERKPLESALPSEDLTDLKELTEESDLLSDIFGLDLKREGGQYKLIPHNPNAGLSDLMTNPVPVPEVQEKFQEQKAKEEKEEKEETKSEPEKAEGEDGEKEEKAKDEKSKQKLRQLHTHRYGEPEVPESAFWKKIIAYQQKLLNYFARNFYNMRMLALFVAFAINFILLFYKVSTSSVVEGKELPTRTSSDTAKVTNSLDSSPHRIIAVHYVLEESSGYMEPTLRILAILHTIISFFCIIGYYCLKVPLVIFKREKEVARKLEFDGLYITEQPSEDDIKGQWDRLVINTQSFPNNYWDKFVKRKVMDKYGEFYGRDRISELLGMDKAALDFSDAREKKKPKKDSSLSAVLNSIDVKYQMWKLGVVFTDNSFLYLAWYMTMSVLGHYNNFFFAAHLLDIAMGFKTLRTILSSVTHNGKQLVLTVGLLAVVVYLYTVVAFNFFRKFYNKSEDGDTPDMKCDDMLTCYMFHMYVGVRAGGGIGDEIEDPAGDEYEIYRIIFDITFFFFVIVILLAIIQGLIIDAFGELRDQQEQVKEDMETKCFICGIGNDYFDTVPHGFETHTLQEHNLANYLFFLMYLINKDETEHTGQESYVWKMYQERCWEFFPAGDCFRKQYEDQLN

| inhibition | Structure (SMILES) |
| --- | --- |
| Active | CCCCC[C@@H]1OC(=O)[C@@H](C)NC(=O)[C@H](CCCCC)OC(=O)[C@@H](C)NC(=O)[C@H](CCCCC)OC(=O)[C@@H](C)NC1=O |
| Active | CCCCC[C@@H]1OC(=O)[C@@H](C)N(C)C(=O)[C@H](CCCCC)OC(=O)[C@@H](C)NC(=O)[C@H](CCCCC)OC(=O)[C@@H](C)NC1=O |
| Active | CCCCC[C@@H]1OC(=O)[C@@H](C)N(C)C(=O)[C@H](CCCCC)OC(=O)[C@@H](C)N(C)C(=O)[C@H](CCCCC)OC(=O)[C@@H](C)NC1=O |

| Structure (SMILES) | inhibition |
| --- | --- |
| CCCCC[C@@H]1OC(=O)[C@@H](C)N(C)C(=O)[C@H](CCCCC)OC(=O)[C@@H](C)N(C)C(=O)[C@H](CCCCC)OC(=O)[C@@H](C)N(C)C1=O | Active |
